Experimental data reported in patent publication US20180271996A1, “COMBINATION THERAPIES OF HER2-TARGETED ANTIBODY-DRUG CONJUGATES” (Mersana Therapeutics, Inc., priority 2017, published 2018).
Non-standard residues stand in square brackets, D forms with d. Residues, ends and D or L forms follow the SMILES beside them. *: point of attachment. Dolaproine = CO[C@@H]([C@@H]1CCCN1)[C@@H](C)C(=O)O; Dil = CC[C@H](C)[C@H](NC)[C@@H](CC(=O)O)OC; NMe2Val = CC(C)[C@@H](C(=O)*)N(C)C; NH(3-hydroxypropyl) = OCCCN*

Tests used:
SKBR3 [1] = assay: ATP release from cells (ENLITEN ATP Assay), SKBR3; type: cell-based; conditions: AF-HPA or XMT-1519 conjugate at 0.5 μM, 24 h, mitoxantrone positive control, compared to untreated (control) cells, FIG. 2
Description: (§1) Cancer cells undergoing apoptosis in response to specific anticancer therapies are immunogenic (also known as immunogenic cell death (ICD)), as long as they emit precise DAMPs in a spatiotemporally defined fashion. […] Mitoxantrone, a known strong inducer of ICD and ATP release, was used as a positive control. Briefly, two HER2 expressing cell lines, JIMT-1 (cat. # ACC589, DSMZ Cell Collection) and SKBR3 (cat # ATCC® HTB 30™, American Tissue Culture Collection) were seeded at a density of 7500 cells per well in 24 wells plate, allowed to grow for 24 h, and then treated with AF-HPA or XMT-1519 conjugate at 0.5 μM in 100 μl in […] (Cat#11875-119, Thermo Fisher Scientific) for 24 h. The cells were then pelleted by centrifugation and ATP release was measured using ENLITEN® ATP Assay System (Promega) according to manufacturer's instructions.

NCI-N87 cells = assay: Calreticulin exposure on cell membrane (flow cytometry), NCI-N87; type: cell-based, human; conditions: 2.5 h at 37° C
Description: (§2) High HER2-expressing cell lines, NCI-N87 (800,000 HER2 receptors), SKBR3 (700,000 HER2 receptors) and low HER2 expressing cell line HT-29 (16,000 HER2 receptors) were re-suspended at a density of 2×10^6 cells/mL in 100 μl PBS containing 2% FBS. Cells in 96 well plate (Corning® 96 Well Clear Round Bottom Polypropylene Not Treated Microplate cat#3879) were treated with XMT-1519 conjugate or AF-HPA at 1 μM or with mitoxantrone, a strong calreticulin exposure inducer, at 0.01 to 1 μM for 2.5 h at 37° C. Cells were then incubated with anti-calreticulin antibody (clone 16B11.1 Cat: MABT217, Millipore Sigma, 1:200) in ice cold PBS containing 2% FBS for 1 h on ice, washed twice with cold PBS containing 2% and then incubated for 20 min on ice with a secondary antibody (Alexa 647-anti Mouse IgG (H+L) 1:800, Thermo Fisher Scientific Cat#:A32728) in ice cold PBS containing 2% FBS. Thereafter the cells were stained with Annexin V (Pacific Blue™ cat# A35122, Thermo Fisher Scientific) according to manufacturer's instructions to identify apoptotic cell population. Necrotic cell population was labeled by propidium iodide (cat# P3566 Thermo Fisher Scientific) at 1:1000 dilution. Cells were then analyzed by flow cytometry using MACSQuant® Analyzer 10. Apoptotic and necrotic cell populations were excluded and only live cells for measured for calreticulin exposure.

JIMT-1 = assay: ATP release from cells (ENLITEN ATP Assay), JIMT-1; type: cell-based, human; conditions: AF-HPA or XMT-1519 conjugate at 0.5 μM, 24 h, mitoxantrone positive control, compared to untreated (control) cells, FIG. 2
Description: as §1

SKBR3 [2] = assay: Calreticulin exposure on cell membrane (flow cytometry), SKBR3; type: cell-based; conditions: SKBR3 (700,000 HER2 receptors); 1 μM, 2.5 h at 37° C; FIG. 3
Description: as §2

[3] = test system: TumorGraft™ model of non-small cell lung carcinoma (CTG-0860); assay: Antitumor activity in low passage TumorGraft model of non-small cell lung carcinoma in humanized mice (CTG-0860); type: in vivo; conditions: per Table 1: XMT-1519 conjugate 1.0 mg/kg IV q7dx3; pembrolizumab 2.5 mg/kg IP q5dx6; n=5 per group; FIG. 1
Description: Unmatched human leukocyte antigen (HLA) humanized CD34+ engrafted immune compromised female mice (Taconic NOG) were subcutaneously implanted unilaterally on the left flank with tumor fragments (n=5 for each group and two additional mice for tumor infiltration lymphocytes measurement for the test compounds only). […] Tumor size was measured at the times indicated in FIG. 1 using digital calipers. Tumor volume was calculated and was used to determine the tumor growth inhibition. Control mice were sacrificed when tumors reached a size of 1500 mm^3. Tumor volumes are reported as the mean±SEM for each group.
When tumors reached a size of 1500 mm^3 in control mice, they were sacrificed as well as two mice from each treatment groups, and tumor infiltration lymphocytes were analyzed. At the study endpoint (day 49) all the surviving mice were sacrificed and tumor infiltration lymphocytes were analyzed. Tumors were dissociated and analyzed for tumor infiltrating lymphocytes by flow cytometry for the following markers: human CD45 infiltrating lymphocytes, hCD3 (T cells), hCD4 (helper T cells), hCD8 (cytotoxic T cells), hCD19 (B cells), T cells activation and proliferation—hCD25.

HT-29 = assay: Calreticulin exposure on cell membrane (flow cytometry), HT-29; type: cell-based; conditions: HT-29 (16,000 HER2 receptors, low HER2); 1 μM, 2.5 h at 37° C; FIG. 3
Description: as §2

[4] = test system: 4T1-7bb7 cells (human HER2-expressing mouse 4T1 breast cancer); assay: Tumor response in 4T1-7bb7 syngeneic mouse model (Example 5); type: in vivo, Balb/c mice; conditions: per Table 2: XMT-1519 conjugate 4.0 mg/kg IV qwx2; Kadcyla 15.0 mg/kg IV qwx2; anti-PD1 mAb 10.0 mg/kg IP days 0, 2, 4, 7, 10; n=13; FIG. 5
Description: Tumor growth inhibition (% TGI) was defined as the percent difference in median tumor volumes (MTVs) between treated and control groups.
Treatment efficacy was determined from the incidence and magnitude of regression responses of the tumor size observed during the study. Treatment may cause partial regression (PR) or complete regression (CR) of the tumor in an animal. In a PR response, the tumor volume was 50% or less of its Day 1 volume for three consecutive measurements during the course of the study, and equal to or greater than 13.5 mm^3 for one or more of these three measurements. In a CR response, the tumor volume was less than 13.5 mm^3 for three consecutive measurements during the course of the study. An animal with a CR response at the termination of a study was additionally classified as a tumor-free survivor (TFS). Animals were monitored for regression responses.
Six to eight week old female, Balb/c mice (Jackson Labs, Bar Harbor, Me.) were subcutaneously implanted unilaterally on the left flank with 4×10^4/mouse 4T1-7bb7 cells (n=13 mice/group). […] Tumor sizes were measured twice a week using digital calipers, and average tumor volume was calculated to determine tumor growth inhibition. […]

human HER2 = human HER2 (Homo sapiens, UniProt P04626); assay: Inhibition of HER2 functional activity in vitro
Description: The HER2 antibodies disclosed herein serve to modulate, block, inhibit, reduce, antagonize, neutralize or otherwise interfere with the functional activity of HER2. HER2. Functional activities of HER2 include for example, modulation of PI3K-Akt pathway activity. […] PI3K-Akt pathway activity is assessed using any art-recognized method for detecting PI3K-Akt pathway activity, including, but not limited to detecting levels of phosphorylated Akt in the presence and absence of an antibody or antigen binding fragment disclosed herein.
The HER2 antibodies are considered to completely modulate, block, inhibit, reduce, antagonize, neutralize or otherwise interfere with HER2 functional activity when the level of HER2 functional activity in the presence of the HER2 antibody is decreased by at least 95%, e.g., by 96%, 97%, 98%, 99% or 100% as compared to the level of HER2 functional activity in the absence of binding with a HER2 antibody described herein. The HER2 antibodies are considered to partially modulate, block, inhibit, reduce, antagonize, neutralize or otherwise interfere with HER2 functional activity when the level of HER2 activity in the presence of the HER2 antibody is decreased by less than 95%, e.g., 10%, 20%, 25%, 30%, 40%, 50%, 60%, 75%, 80%, 85% or 90% as compared to the level of HER2 activity in the absence of binding with a HER2 antibody described herein.

[5] = NCI-N87 (800,000 HER2 receptors), 1 μM, live cells only, FIG. 3

| Molecule | ATP release (SKBR3 [1]) | calreticulin exposure on cell membrane (NCI-N87 cells; [5]) | ATP release (JIMT-1) | calreticulin exposure on cell membrane (NCI-N87 cells; NCI-N87, mitoxantrone at 0.01 to 1 μM, FIG. 3 panel (a)) | calreticulin exposure on cell membrane (SKBR3 [2]) | tumor response (tumor volume / tumor growth inhibition) [3] | calreticulin exposure on cell membrane (HT-29) | tumor response (tumor growth inhibition / anti-tumor efficacy) [4] | functional activity of HER2 (human HER2) |
| --- | --- | --- | --- | --- | --- | --- | --- | --- | --- |
| CC[C@H](C)[C@@H]([C@@H](CC(=O)N1CCC[C@H]1[C@H](OC)[C@@H](C)C(=O)N[C@@H](Cc1ccccc1)C(=O)NCCCO)OC)N(C)C(=O)[C@@H](NC(=O)[C@H](C(C)C)N(C)C)C(C)C [AF-HPA, Auristatin F-hydroxypropyl amide] (NMe2Val-V[Dil][Dolaproine]F-{NH(3-hydroxypropyl)}) | ATP was released | induced calreticulin exposure | ATP was released | – | – | – | – | – | – |
| O=C1c2c(O)ccc(O)c2C(=O)c2c(NCCNCCO)ccc(NCCNCCO)c21 [mitoxantrone, reference compound] | ATP was released | – | ATP was released | dose dependent calreticulin exposure | – | – | – | – | – |
| XMT 1519-(EG2-MI-(7.7 kDa PHF-BA-(AF-HPA-Ala))) [XMT-1519 conjugate] | ATP was released | induced calreticulin exposure | ATP was released | – | induced calreticulin exposure | decrease in tumor volume | induced calreticulin exposure | significant inhibition of tumor growth | – |
| XMT 1519: fully human HER2 monoclonal antibody, heavy chain SEQ ID NO: 5, light chain SEQ ID NO: 6 | – | – | – | – | – | – | – | – | inhibit the functional activity of HER2 in vitro |
